Legend:
[1] = tested on: histamine-induced lethality; assay: Antihistamine activity: prevention of histamine-induced lethality in guinea pigs; format: in vivo; details: Cavia porcellus, guinea pig; for responders at 1 mg/kg / responders at 5 mg/kg: 0.5 h, 1 hour before histamine 1.1 mg/kg i.v., read-out: Antihistaminic Activity, % Survival; for responders at 1 mg/kg: oral dose 1 mg/kg PO; for responders at 5 mg/kg: oral dose 5 mg/kg PO
Protocol: C. ANTIHISTAMINE ACTIVITY ASSAY
Prevention of Histamine-Induced Lethality in Guinea Pigs. Some of compounds shown below in Table I also were evaluated for antihistamine activity by their ability to protect female albino guinea pigs (250-350 g) against death induced by the intravenous injection of histamine dihydrochloride at 1.1 mg/kg, which is approximately twice the LD99. Doses of the antagonists were administered orally to separate groups of fasted animals 1 hour prior to the challenge with histamine and protection from death recorded for 30 minutes after histamine. ED50 values were determined for each drug by probit analysis.

[2] = CNS activity: antagonism of acetic acid writhing; details: mouse, in vivo; mice, oral, 15 minutes before acetic acid i.p.
Protocol: E. Antagonism of Acetic Acid Writhing. The acetic acid writhing test is a second test useful for determining CNS activity, and is essentially that described by HENDERSHOT and FORSAITH, J. Pharmac. […] Mice were injected with 0.6% aqueous acetic acid at 10 mg/kg i.p. 15 minutes after oral administration of the test drug. The number of writhes for each animal was counted during a 10 minute period starting 3 minutes after acetic acid treatment. A writhe was defined as a sequence of arching of the back, pelvic rotation and hind limb extension.

[3] = CNS activity: antagonism of electro-convulsive shock (ECS); details: mouse, in vivo; mice, oral, one hour before ECS; read-out: ECS test ED50
Protocol: F. Antagonism of Electro-Convulsive Shock (ECS). The ECS test is a third test useful for determining CNS activity. […] One hour after oral administration of the test drug or vehicle, mice were administered a 13 mA, 60 cycle a.c. electroconvulsant shock (ECS) for 0.2 seconds via corneal electrodes.

[4] = tested on: PAF-induced platelet aggregation (platelet-rich plasma); assay: PAF antagonism, in vitro platelet aggregation assay; format: cell-based; details: human PRP; for IC50: dose giving 50 % PAF antagonism, PAF 1-5×10^-8 M; for inhibition at 10 µM: dose 10 micromoles; for inhibition at 5 µM: dose 5 micromoles
Protocol: Blood was centrifuged at 110×g for 15 min. and the supernatant PRP carefully transferred into a polypropylene tube. Platelet-poor-plasma (PPP) was prepared by centrifuging PRP at 12,000×g for 2 min. in a Beckman Microfuge B. PRP was used within 3 hours of drawing the blood.
Platelet Aggregation Assay: When an aggregating agent such as PAF is added to PRP, platelets aggregate. An aggregometer quantifies this aggregation by measuring light (infra-red) transmission through PRP and comparing to PPP. The aggregation assays were performed using a dual-channel aggregometer (Model 440, Chrono-Log Corp., Hayertown, Pa.). PRP (0.45 ml) in aggregometer curettes was continually stirred (37° C.). Solutions of test compounds or vehicle were added to the PRP, and after incubation for 2 min., 10-15 μl aliquots of PAF solution were added so as to achieve a final concentration of 1-5×10^-8 M. Incubations were continued until the increase in light transmission reached a maximum (usually about 2 min). Values for inhibition were calculated by comparing maximal aggregation obtained in the absence and the presence of the compound. For each experiment, a standard PAF antagonist, such as alprazolam, was used as a positive internal control. […] The test results are shown below in Tables Ia, Ib and Ic.

[5] = tested on: PAF-induced bronchospasm; assay: PAF-induced bronchospasm in guinea pigs; format: in vivo; details: guinea pig, 3 mg/kg (iv)
Protocol: PAF is also a known bronchoconstrictive agent in mammals.
B. PAF-INDUCED BRONCHOSPASM IN GUINEA PIGS
Non-sensitized guinea Digs were fasted overnight, and the following morning were anesthetized with 0.9 ml/kg i.p. of dialurethane (0.1 g/ml of diallybarbituric acid, 0.4 g/ml of ethylurea and 0.4 g/ml of urethane). The trachea was cannulated and the animals were ventilated by a Harvard rodent respirator at 55 strokes/min. with a stroke volume of 4 ml. A side arm to the tracheal cannula was connected to a Harvard pressure transducer to obtain a continuous measure of intratracheal pressure, which was recorded on a Harvard Polygraph. The jugular vein was cannulated for the administration of compounds. The animals were challenged i.v. with PAF (0.4 ug/kg in isotonic saline containing 0.25% BSA) and the peak increase in inflation pressure that occurred within 5 min. after challenge was recorded. Test compounds were administered either orally (2 hrs. prior to PAF as a suspension in 0.4% methylcellulose vehicle) or intravenously (10 min. prior to PAF as a solution in dimethylsulfoxide).

## CCCC(=O)N1CCC(=C2c3ccc(Cl)cc3CCc3cccnc32)CC1 [8-chloro-11-(1-n-butyryl-4-piperidylidene)-6,11-dihydro-5H-benzo[5,6]cyclohepta[1,2-b]pyridine]
[1]
  responders at 1 mg/kg: 40%
  responders at 5 mg/kg: 100%
[2]
  ED50: > 320 mg/kg
[3]
  ED50: > 320 mg/kg

## COCC(=O)N1CCN(C2c3ccc(Cl)cc3CCc3cccnc32)CC1 (stereo not drawn) [8-chloro-11-(1-methoxyacetyl-4-piperazinyl)-6,11-dihydro-5H-benzo[5,6]cyclohepta[1,2-b]pyridine]
[4]
  IC50: 5000 nM

## S=C(c1ccccc1)N1CCC(=C2c3ccc(Cl)cc3CCc3cccnc32)CC1 [Z = S, R = Ph, R^3 = Cl, R^4 = H, 8-chloro-11-(1-thiobenzoyl-4-piperidylidene)-6,11-dihydro-5H-benzo[5,6]cyclohepta[1,2-b]pyridine]
[1]
  responders at 1 mg/kg: 0%
  responders at 5 mg/kg: 60%
[2]
  ED50: > 320 mg/kg
[3]
  ED50: > 320 mg/kg

## CNC(=O)N1CCC(=C2c3ccc(Cl)cc3CCc3cccnc32)CC1 [R^3 = Cl, R^4 = H, R = NHCH3, Z = O, 8-chloro-11-(1-methylaminocarbonyl-4-piperidylidene)-6,11-dihydro-5H-benzo[5,6]cyclohepta[1,2-b]pyridine]
[4]; dose 50 micromoles
  inhibition at 50 µM: 29%

## CC(=O)N1CCC(=C2c3ccccc3CCc3ccc[n+]([O-])c32)CC1
[4]
  IC50: 1500 nM

## C=CC(=O)N1CCC(=C2c3ccc(Cl)cc3CCc3cccnc32)CC1 [R^3 = Cl, R^4 = H, R = CHCH2, Z = O, 8-chloro-11-[1-acryloyl-4-piperidylidene]-6,11-dihydro-5H-benzo[5,6]cyclohepta[1,2-b]pyridine]
[4]; dose 25 micromoles
  inhibition at 25 µM: 63%

## CC(=O)N1CCC(=C2c3ccc(Cl)cc3CC(O)c3cccnc32)CC1 (stereo not drawn) [5-hydroxy-8-chloro-11-(1-acetyl-4-piperidylidene)-6,11-dihydro-5H-benzo[5,6]cyclohepta[1,2-b]pyridine]
[4]
  IC50: 5000 nM

## CC(=O)N1CCC(=C2c3cc(F)c(F)cc3CCc3ccc[n+]([O-])c32)CC1
[4]; dose 2.5 micromoles
  inhibition at 2.5 µM: 53%

## CCOC(=O)N1CCC(=C2c3ccc(Cl)cc3CCc3cccnc32)CC1 [R = OC2 H5, R^3 = Cl, R4 = H, Z = O, 8-chloro-6,11-dihydro-11-(1-ethoxycarbonyl-4-piperidylidene)-5H-benzo[5,6]cyclohepta[1,2-b]pyridine, reference compound]
[1]; oral, probit analysis, read-out: Antihistaminic Activity, ED50
  ED50: 0.19 mg/kg

## CC(=O)N1CCC(=C2c3ccc(F)cc3CCc3cccnc32)CC1 [R = CH3, Z = O, R^3 = F, R^4 = H, 8-fluoro-11-(1-acetyl-4-piperidylidene)-6,11-dihydro-5H-benzo[5,6]cyclohepta[1,2-b]pyridine]
[4]
  IC50: 700 nM
[5]
  inhibition of PAF-induced bronchospasm: 99%
[1]
  responders at 5 mg/kg: 20%

## CC(=O)N1CCC(=C2c3ccc(Br)cc3CCc3cccnc32)CC1 [R^3 = Br, R^4 = H, R = CH3, Z = O, 8-bromo-11-[1-acetyl-4-piperidylidene]-6,11-dihydro-5H-benzo[5,6]cyclohepta[1,2-b]pyridine]
[4]
  IC50: 1200 nM

## COCC(=O)N1CCC(=C2c3ccc(Cl)cc3CCc3cccnc32)CC1 [R = CH2 OCH3, R^3 = Cl, R^4 = H, Z = O, 8-chloro-11-(1-methoxyacetyl-4-piperidylidene)-6,11-dihydro-5H-benzo[5,6]cyclohepta[1,2-b]pyridine]
[4]
  IC50: 6000 nM
[1]
  responders at 1 mg/kg: 80%
  responders at 5 mg/kg: 80%
[2]
  ED50: > 320 mg/kg
[3]
  ED50: > 320 mg/kg

## COCC(=O)N1CCC(=C2c3ccc(F)cc3CCc3cccnc32)CC1 [R = CH2 OCH3, R^3 = F, R^4 = H, Z = O, 8-fluoro-11-(1-methoxyacetyl-4-piperidylidene)-6,11-dihydro-5H-benzo[5,6]cyclohepta[1,2-b]pyridine]
[4]
  inhibition at 10 µM: 9%
[1]
  responders at 1 mg/kg: 100%
  responders at 5 mg/kg: 100%
[2]
  ED50: < 320 mg/kg
[3]
  ED50: < 320 mg/kg

## O=C(c1ccccc1)N1CCC(=C2c3ccc(Cl)cc3CCc3cccnc32)CC1 [Z = O, R = Ph, R^3 = Cl, R^4 = H, 8-chloro-11-(1-benzoyl-4-piperidylidene)-6,11-dihydro-5H-benzo[5,6]cyclohepta[1,2-b]pyridine]
[4]
  inhibition at 10 µM: 9%
[1]
  responders at 1 mg/kg: 0%
  responders at 5 mg/kg: 100%

## CC(=O)N1CCC(=C2c3cc4ccccc4cc3CCc3cccnc32)CC1
[4]
  inhibition at 5 µM: 35%

## CCC(=O)N1CCC(=C2c3ccc(Cl)cc3CCc3cccnc32)CC1 [R = CH2 CH2, R^3 = Cl, R^4 = H, Z = O, 8-chloro-11-(1-propionyl-4-piperidylidene)-6,11-dihydro-5H-benzo[5,6]cyclohepta[1,2-b]pyridine]
[4]; dose 3 micromoles
  inhibition at 3 µM: 60%
[1]
  responders at 1 mg/kg: 40%
  responders at 5 mg/kg: 80%
[2]
  ED50: > 320 mg/kg
[3]
  ED50: > 320 mg/kg

## CC(=O)N1CCC(C2c3ccccc3CCc3cccnc32)CC1 (stereo not drawn) [R^3 = H, R^4 = H, R = CH3, Z = O, X = CH, 11-(1-acetyl-4-piperidyl)-6,11-dihydro-5H-benzo[5,6]cyclohepta[1,2-b]pyridine]
[4]
  IC50: 5000 nM

## CC(=O)N1CCC(=C2c3ccc(Cl)cc3CCc3ccc[n+](C)c32)CC1
[4]
  inhibition at 5 µM: 58%

## CC(=O)N1CCC(=C2c3ccc(Cl)cc3CCc3cc(C)cnc32)CC1
[4]; dose .12 micromoles
  inhibition at 0.12 µM: 44%

## CC(=O)N1CCC(=C2c3ccc(Cl)cc3CC(C)c3cccnc32)CC1 (stereo not drawn) [5-methyl-8-chloro-11-[1-acetyl-4-piperidylidene]-5H-benzo[5,6]cyclohepta[1,2-b]pyridine]
[4]
  IC50: 1000 nM

## CC(=O)N1CCC(=C2c3ccc(Cl)cc3CC(=O)c3cccnc32)CC1 [8-chloro-11-[1-acetyl-4-piperidylidene]-6,11-dihydro-5H-benzo[5,6]cyclohepta[1,2-b]pyridin-5-one]
[4]
  IC50: 1200 nM

## CC(=O)N1CCC(=C2c3ccc(Cl)cc3C=Cc3cccnc32)CC1
[4]
  IC50: 500 nM

## CC(=O)N1CCN(C2c3ccc(Cl)cc3CCc3cccnc32)CC1 (stereo not drawn) [R^3 = Cl, X = N, R = CH3, Z = O, R^4 = H, 8-chloro-11-(1-acetyl-4-piperazinyl)-6,11-dihydro-5H-benzo[5,6]cyclohepta[1,2-b]pyridine]
[4]; dose .5 micromoles
  inhibition at 0.5 µM: 43%

## CCSC(=O)N1CCC(=C2c3ccc(Cl)cc3CCc3cccnc32)CC1 [R = SCH2 CH3, R^3 = Cl, R^4 = H, Z = O, 8-chloro-11-[1-thioethoxycarbonyl-4-piperidylidene]-6,11-dihydro-5H-benzo[5,6]cyclohepta[1,2-b]pyridine]
[4]
  inhibition at 10 µM: 0%
[1]
  responders at 1 mg/kg: 100%
  responders at 5 mg/kg: 80%
[2]
  ED50: > 320 mg/kg
[3]
  ED50: > 320 mg/kg

## O=CN1CCN(C2c3ccc(Cl)cc3CCc3cccnc32)CC1 (stereo not drawn) [R^3 = Cl, X = N, R = H, Z = O, R^4 = H, 8-chloro-11-(1-formyl-4-piperazinyl)-6,11-dihydro-5H-benzo[5,6]cyclohepta[1,2-b]pyridine]
[4]
  IC50: 5000 nM

— patent publication US5438062A, “Benzo(5,6)cycloheptapyridines, compositions and methods of use” (Schering Corporation, priority 1987, dated 1995)
